This is an account of results in the SangsterLogP compilation.

A short description of the series: method code SF-AS, from DOI: 10.1002/jps.2600771105, PMID: 3225751. The conditions noted are these: pH 1.0.
A word on the logD: it is lipophilicity at a set pH, counting ionised and neutral species. A lower logD goes with a more hydrophilic compound. With `CC(C)(C)C1(Cl)C(=O)NC(=O)NC1=O`, the logD is 0.82.

The compound `CC(C)C1(C)C(=O)NC(=O)NC1=O` showed a logD of 0.54. Take `CCC1(CC)C(=O)NC(=S)NC1=O`: the logD came to 1.5. For `CC(C)(C)C1C(=O)NC(=O)NC1=O`, the logD was determined as 0.28. Compound `CCCC1(CCC)C(=O)NC(=S)NC1=O` had a logD of 2.66. In the case of `CC(C)C1(C(C)C)C(=O)NC(=O)NC1=O` it was 1.56. `CC(C)(C)C1(C)C(=O)NC(=O)NC1=O`: the logD is 0.8. Next, `CC(C)C1C(=O)NC(=O)NC1=O`: -0.02.

Take `CCCCC1(CCCC)C(=O)NC(=O)NC1=O`: the log distribution coefficient (logD) was determined as 2.7. `C=CCC1(C(C)(C)C)C(=O)NC(=O)NC1=O` registered a pH-dependent lipophilicity (logD) of 1.64.

The compound `CCCC1(CCC)C(=O)NC(=O)NC1=O` displayed a logD of 1.75. In the case of `CCC1(C(C)(C)C)C(=O)NC(=O)NC1=O`, the logD is 1.38. `CCCCC1(CC)C(=O)NC(=O)NC1=O`: the logD worked out at 1.73. Consider `CC1(C)C(=O)NC(=S)NC1=O`, for which the logD came out at 0.5.
